# Laboratory results taken from patent US20250230193A1, “CYCLIC COMPOUND HAVING SELECTIVE KRAS INHIBITORY EFFECT ON HRAS AND NRAS” (CHUGAI SEIYAKU KABUSHIKI KAISHA, priority 2022, published 2025).
# Where a SMILES comes first, the peptide text is derived from it. Bridges are numbered along the chain shown (N, C = ends). [ ]: non-standard residue; d: D form. The star is where a group is joined. hPhe(3-Cl-4-CF3) = N[C@@H](CCc1ccc(C(F)(F)F)c(Cl)c1)C(=O)O; NPrPhe(4-CF3) = CCCN[C@@H](Cc1ccc(C(F)(F)F)cc1)C(=O)O; NPrPhe(4-Me) = CCCN[C@@H](Cc1ccc(C)cc1)C(=O)O; NMeGly(cPent) = CN[C@H](C(=O)O)C1CCCC1; Pro(4,4-Me2) = CC1(C)CN[C@H](C(=O)O)C1; Aze(3S-Me) = C[C@H]1CN[C@@H]1C(=O)O; NMeD = CN[C@@H](CC(=O)O)C(=O)O; NMeL = CN[C@@H](CC(C)C)C(=O)O; Morpholide = C1CN(*)CCO1; NMeA = CN[C@@H](C)C(=O)O; Ac5c = NC1(C(=O)O)CCCC1; Aze = O=C(O)[C@@H]1CCN1; Sar = CNCC(=O)O
# Experiments:
# [1] = molecular target: GDP-bound NRAS wild-type protein (Homo sapiens, UniProt P01111); experiment: Binding to NRAS by surface plasmon resonance (SPR), Single Cycle Kinetics; details: for NRAS/KRAS (ratio of KD value with respect to NRAS to KD value with respect to KRAS): GDP-bound NRAS wild-type vs GDP-bound KRAS wild-type
# Sequence of GDP-bound NRAS wild-type protein (P01111 whole entry): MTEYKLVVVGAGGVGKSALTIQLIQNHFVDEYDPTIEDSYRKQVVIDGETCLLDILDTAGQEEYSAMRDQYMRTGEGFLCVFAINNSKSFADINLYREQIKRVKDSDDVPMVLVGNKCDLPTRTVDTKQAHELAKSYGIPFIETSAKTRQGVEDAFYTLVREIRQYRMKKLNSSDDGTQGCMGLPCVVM
# [2] = molecular target: GDP-bound HRAS wild-type protein (Homo sapiens, UniProt P01112); experiment: Binding to HRAS by surface plasmon resonance (SPR), Single Cycle Kinetics; details: for HRAS/KRAS (ratio of KD value with respect to HRAS to KD value with respect to KRAS): GDP-bound HRAS wild-type vs GDP-bound KRAS wild-type
# Sequence of GDP-bound HRAS wild-type protein (P01112 whole entry): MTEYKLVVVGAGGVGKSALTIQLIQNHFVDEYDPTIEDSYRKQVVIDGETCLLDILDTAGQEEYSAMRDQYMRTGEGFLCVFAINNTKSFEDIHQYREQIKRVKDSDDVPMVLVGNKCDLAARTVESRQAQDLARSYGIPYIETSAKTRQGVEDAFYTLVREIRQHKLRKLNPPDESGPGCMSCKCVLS
# [3] = KD ratio NRAS/KRAS, class symbols
# [4] = KD ratio HRAS/KRAS, class symbols
smiles,measurement,setting,value
CCO[C@@H]1C[C@H]2C(=O)NC3(CC(C)(C)C3)C(=O)N(C)[C@@H](C3CCCC3)C(=O)N(C)[C@H](C(=O)N(CC)CC)CC(=O)N(C)[C@@H](COC)C(=O)N[C@@H]([C@@H](C)CC)C(=O)N(C)CC(=O)N(C)[C@H]3C/C=C\CCN(C3=O)[C@@H](Cc3ccc(C)cc3)C(=O)N(C)CC(=O)N[C@@H](CCc3ccc(C(F)(F)F)c(OC)c3)C(=O)N2C1 [PP2398],NRAS/KRAS (ratio of KD value with respect to NRAS to KD value with respect to KRAS),[1]; SPR,A (a compound having 10 or more and less than 20 is denoted as A)
same,HRAS/KRAS (ratio of KD value with respect to HRAS to KD value with respect to KRAS),[2]; SPR,A (a compound having 10 or more and less than 20 is denoted as A)
CCC(CC)[C@H]1C(=O)N(C)[C@H](C(=O)N(C)C)CC(=O)N(C)[C@@H](COC)C(=O)N[C@@H]([C@@H](C)CC)C(=O)N(C)CC(=O)N(C)[C@H]2C/C=C\CCN(C2=O)[C@@H](Cc2ccc(C(F)F)cc2)C(=O)N(C)CC(=O)N[C@@H](CCc2ccc(Cl)c(Cl)c2)C(=O)N2C[C@H](OC3CCCC3)C[C@H]2C(=O)NC2(CC(C)(C)C2)C(=O)N1C [PP2649],NRAS/KRAS (ratio of KD value with respect to GDP-bound NRAS wild-type protein to KD value with respect to KRAS),[1]; [3],AA (a compound having 20 or more is denoted as AA)
same,HRAS/KRAS (ratio of KD value with respect to GDP-bound HRAS wild-type protein to KD value with respect to KRAS),[2]; [4],A (a compound having 10 or more and less than 20 is denoted as A)
CCO[C@@H]1C[C@H]2C(=O)NC3(CCC3)C(=O)N(C)[C@@H](C3CCCC3)C(=O)N(C)[C@H](C(=O)N(C)C)CC(=O)N(C)[C@@H](CC(C)(C)C)C(=O)N[C@@H]([C@@H](C)CC)C(=O)N(C)CC(=O)N(C)[C@H]3CCCCN(C3=O)[C@@H](Cc3ccc(C(F)(F)F)cc3)C(=O)N(C)CC(=O)N[C@@H](CCc3cc(F)c(C(F)(F)F)c(F)c3)C(=O)N2C1 [PP0699],NRAS/KRAS (ratio of KD value with respect to GDP-bound NRAS wild-type protein to KD value with respect to KRAS),"[1]; KD ratio NRAS/KRAS, SPR",C (A compound having a KD ratio of 0.1 or more and less than 3 is denoted as C)
same,HRAS/KRAS (ratio of KD value with respect to GDP-bound HRAS wild-type protein to KD value with respect to KRAS),"[2]; KD ratio HRAS/KRAS, SPR",C (A compound having a KD ratio of 0.1 or more and less than 3 is denoted as C)
CCCO[C@H](C)[C@@H]1NC(=O)[C@H](COCC)N(C)C(=O)C[C@@H](C(=O)N(C)CC)N(C)C(=O)[C@H](C2CCCC2)N(C)C(=O)C2(CC(C)(C)C2)NC(=O)[C@@H]2C[C@H](C)CN2C(=O)[C@H](CCc2ccc(C(F)(F)F)c(OC)c2)NC(=O)CN(C)C(=O)[C@H](Cc2ccc(C)cc2)N2CC/C=C\C[C@@H](C2=O)N(C)C(=O)CN(C)C1=O [PP2425],NRAS/KRAS (ratio of KD value with respect to NRAS to KD value with respect to KRAS),[1]; SPR,AA (a compound having 20 or more is denoted as AA)
same,HRAS/KRAS (ratio of KD value with respect to HRAS to KD value with respect to KRAS),[2]; SPR,A (a compound having 10 or more and less than 20 is denoted as A)
"CCCN1C(=O)[C@@H]2CCN2C(=O)CN(C)C(=O)[C@H]([C@@H](C)CC)NC(=O)[C@H](CC(C)C)N(C)C(=O)C[C@@H](C(=O)N2CCOCC2)N(C)C(=O)[C@H](C2CCCC2)N(C)C(=O)C2(CCCC2)NC(=O)[C@@H]2CC(C)(C)CN2C(=O)[C@H](CCc2ccc(C(F)(F)F)c(Cl)c2)NC(=O)CN(C)C(=O)[C@@H]1Cc1ccc(C(F)(F)F)cc1 [PP0456] ([NMeL]I[Sar][Aze][NPrPhe(4-CF3)][Sar][hPhe(3-Cl-4-CF3)][Pro(4,4-Me2)][Ac5c][NMeGly(cPent)][NMeD]-Morpholide; lactam N-11)",NRAS/KRAS (ratio of KD value with respect to GDP-bound NRAS wild-type protein to KD value with respect to KRAS),"[1]; KD ratio NRAS/KRAS, SPR",C (A compound having a KD ratio of 0.1 or more and less than 3 is denoted as C)
same,HRAS/KRAS (ratio of KD value with respect to GDP-bound HRAS wild-type protein to KD value with respect to KRAS),"[2]; KD ratio HRAS/KRAS, SPR",C (A compound having a KD ratio of 0.1 or more and less than 3 is denoted as C)
CCC[C@H]1C(=O)N[C@@H]([C@@H](C)CC)C(=O)N(C2CC2)CC(=O)N(C)[C@H]2C/C=C\CCN(C2=O)[C@@H](CC2CCC(F)(F)CC2)C(=O)N(C)CC(=O)N[C@@H](CCc2ccc(Cl)c(Cl)c2)C(=O)N2C[C@H](OCC)C[C@H]2C(=O)NC2(CC(C)(C)C2)C(=O)N(C)[C@@H](C2CCCC2)C(=O)N(C)[C@H](C(=O)N(C)C)CC(=O)N1C [PP2567],NRAS/KRAS (ratio of KD value with respect to GDP-bound NRAS wild-type protein to KD value with respect to KRAS),[1]; [3],A (a compound having 10 or more and less than 20 is denoted as A)
same,HRAS/KRAS (ratio of KD value with respect to GDP-bound HRAS wild-type protein to KD value with respect to KRAS),[2]; [4],A (a compound having 10 or more and less than 20 is denoted as A)
CCCN1C(=O)[C@@H]2[C@@H](C)CN2C(=O)[C@H](C)N(C)C(=O)[C@H]([C@@H](C)CC)NC(=O)[C@H](CC(C)C)N(C)C(=O)C[C@@H](C(=O)N2CCOCC2)N(C)C(=O)[C@H](C2CCCC2)N(C)C(=O)C2(CCCC2)NC(=O)[C@@H]2CCCN2C(=O)[C@H](CCc2ccc(C(F)(F)F)c(Cl)c2)NC(=O)CN(C)C(=O)[C@@H]1Cc1ccc(C)cc1 [PP0138] ([NMeL]I[NMeA][Aze(3S-Me)][NPrPhe(4-Me)][Sar][hPhe(3-Cl-4-CF3)]P[Ac5c][NMeGly(cPent)][NMeD]-Morpholide; lactam N-11),NRAS/KRAS (ratio of KD for GDP-bound NRAS wild-type to KD for KRAS),"[1]; KD ratio NRAS/KRAS, SPR",C (A compound having a KD ratio of 0.1 or more and less than 3 is denoted as C)
same,HRAS/KRAS (ratio of KD for GDP-bound HRAS wild-type to KD for KRAS),"[2]; KD ratio HRAS/KRAS, SPR",C (A compound having a KD ratio of 0.1 or more and less than 3 is denoted as C)
